Test results: publication PMC10399481, “Discovery and biological evaluation of novel CARM1/HDAC2 dual-targeting inhibitors with anti-prostate cancer agents” (Journal of Enzyme Inhibition and Medicinal Chemistry, 2023)
Entries after “also recorded” stand apart in the source; their conditions may differ. Like-named read-outs stand apart in the source and are kept apart here.

Legend:
DU145 cells = assay: MTT cell growth assay, DU145; details: for inhibition at 1 µM: DU-145, read-out: DU145 (% inhibition rate, 1 μM)
Method: (§2) The American Type Culture Collection (ATCC) (Manassas, VA, USA) provided the human cancer cell lines including DU145, RM-1, LAPC4, 22RV1, and PC-3, which was then cultured in Dulbecco’s modified Eagle’s medium (DMEM) with 1% penicillin-streptomycin and 10% foetal bovine serum (FBS) in a humidified environment with 5% CO2 at 37 °C.
(§3) Based on the experimental method published previously, cell lines were prepared in cell suspension (5 × 10^4 cells/mL) and seeded into a 96-well plate[59].

PC-3 cells = assay: MTT cell growth assay, PC-3; details: Homo sapiens, PC-3, 72 h, read-out: PC-3 cell proliferation IC50
Method: The American Type Culture Collection (ATCC) (Manassas, VA, USA) provided the human cancer cell lines including DU145, RM-1, LAPC4, 22RV1, and PC-3, which was then cultured in Dulbecco’s modified Eagle’s medium (DMEM) with 1% penicillin-streptomycin and 10% foetal bovine serum (FBS) in a humidified environment with 5% CO2 at 37 °C. […] Hit compounds were purchased from WuXi AppTec.
as §3

HDAC2 = target: T1, HDAC2 (Homo sapiens, UniProt Q92769); assay: In vitro HDAC2 inhibition assay (Boc-Lys(acetyl)-AMC fluorogenic); type: biochemical
T1 construct: purchased Abcam (Cambridge, MA, USA)
T1 sequence (Q92769 whole entry): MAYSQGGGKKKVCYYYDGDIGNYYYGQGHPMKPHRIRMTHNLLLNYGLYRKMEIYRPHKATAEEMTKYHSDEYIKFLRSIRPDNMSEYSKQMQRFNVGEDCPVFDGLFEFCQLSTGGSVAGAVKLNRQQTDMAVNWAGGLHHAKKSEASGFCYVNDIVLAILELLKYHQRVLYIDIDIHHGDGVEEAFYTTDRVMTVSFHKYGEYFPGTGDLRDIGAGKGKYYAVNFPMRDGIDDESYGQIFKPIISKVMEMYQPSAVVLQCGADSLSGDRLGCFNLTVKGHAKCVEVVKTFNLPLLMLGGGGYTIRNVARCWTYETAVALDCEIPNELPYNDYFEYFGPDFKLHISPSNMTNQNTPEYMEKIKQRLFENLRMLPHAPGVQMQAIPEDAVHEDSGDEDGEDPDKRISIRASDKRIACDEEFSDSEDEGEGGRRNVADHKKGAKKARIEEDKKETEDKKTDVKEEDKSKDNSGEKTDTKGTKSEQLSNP
Method: (§1) Hit compounds were purchased from WuXi AppTec.
In vitro HDAC2 inhibition assays were performed as previously stated. Briefly, 50 µL of various concentrations of tested compounds were mixed with 10 µL of HDAC2 enzyme solution. After 5 min of 37 °C incubation, 40 µL of the luorogenic substrate Boc-Lys(acetyl)-AMC was added. The mixture was incubated at 37 °C for 30 min and stopped by adding 100 µL of developer containing trypsin and TSA. Then, fluorescence intensity was determined 20 min later at excitation and emission wavelengths of 390 and 460 nm, respectively, using a microplate reader. The IC50 values were determined by the GraphPad Prism 6 program based on a sigmoidal dose − response equation, and the inhibition rates were calculated using the fluorescence intensity readings of the tested wells in comparison to those of the control wells.

22RV1 cells = assay: MTT cell growth assay, 22RV1; details: Homo sapiens, 22Rv1, 72 h, read-out: 22RV1 cell proliferation IC50
Method: as §2, §3

RM-1 cells = assay: MTT cell growth assay, RM-1; details: RM1, 72 h, read-out: RM-1 cell proliferation IC50
Method: as §2, §3

[1] = system: multiple prostate-related tumour cells (DU145, RM-1, LAPC4, 22RV1, PC-3); assay: MTT cell growth assay, prostate cancer cell panel; details: Homo sapiens, read-out: anti-proliferative IC50 against prostate-related tumour cells
Method: as §2, §3

DU145 xenograft tumour = assay: In vivo anticancer activity, DU145 xenograft; set-up: species or system BALB/c nude mice; details: 5, 10 and 20 mg/kg i.p., every four days, six times; dose-dependent
Method: The method of in vivo assay was described previously. We bought healthy female BALB/c nude mice from the animal experiment centre of Yangzhou University. All experiments involving animals were approved by the Animal Ethics Committee of China Pharmaceutical University. Mice were subcutaneously injected on the right flank with DU145 cells (200 µl, 1 × 10^7 cells). When tumour sizes reached 80–100 mm^3, mice were divided into four groups at random. Every four days for a total of six times, each group was injected intraperitoneally with the vehicle, CH-1 (5 mg/kg), CH-1 (10 mg/kg), and CH-1 (20 mg/kg). Tumour volume was measured every four days and calculated by the formula (c × c × d)/2 (c, the smallest diameter; d, the largest diameter).

CARM1 = target: T2, CARM1 (Homo sapiens, UniProt Q86X55); assay: In vitro CARM1 inhibition assay (3H-SAM, Flashplate); type: biochemical; details: 30 min preincubation, pH 7.5
T2 construct: purchased Abcam (Cambridge, MA, USA)
T2 sequence (Q86X55 1-608): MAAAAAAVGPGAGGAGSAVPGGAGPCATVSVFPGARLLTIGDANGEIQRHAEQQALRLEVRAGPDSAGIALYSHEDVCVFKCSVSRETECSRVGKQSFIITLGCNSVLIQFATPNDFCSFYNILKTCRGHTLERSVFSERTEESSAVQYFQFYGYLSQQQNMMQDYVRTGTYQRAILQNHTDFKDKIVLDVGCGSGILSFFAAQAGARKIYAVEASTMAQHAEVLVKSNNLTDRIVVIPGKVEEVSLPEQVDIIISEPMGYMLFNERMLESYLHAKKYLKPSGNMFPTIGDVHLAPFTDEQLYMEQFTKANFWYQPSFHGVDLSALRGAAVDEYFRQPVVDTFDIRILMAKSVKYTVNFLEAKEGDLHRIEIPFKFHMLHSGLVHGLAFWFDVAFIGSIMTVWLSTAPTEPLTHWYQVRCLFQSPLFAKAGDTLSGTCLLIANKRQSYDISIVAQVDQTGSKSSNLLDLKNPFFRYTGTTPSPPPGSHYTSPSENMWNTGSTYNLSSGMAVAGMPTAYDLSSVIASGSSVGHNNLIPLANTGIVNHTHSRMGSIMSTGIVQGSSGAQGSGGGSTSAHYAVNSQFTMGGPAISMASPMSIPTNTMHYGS
Method: as §1
In vitro CARM1 inhibition assays were conducted as previously described. Before the reaction began, CARM1 was preincubated with compounds for 30 min at room temperature. […] Assay was performed at the condition of pH 7.5. The assay was quenched through the addition of 300 µM unlabelled SAM. The quantity of ^3H-labeled peptide produced was measured by Flashplate on a Topcount reader.

LAPC4 cells = assay: MTT cell growth assay, LAPC4; details: Homo sapiens, LAPC4, 72 h, read-out: LAPC4 cell proliferation IC50
Method: as §2, §3

[2] = 37 °C, 30 min, read-out: HDAC2 (IC50)

IC50 (CARM1) | IC50 (HDAC2; [2]) | Compound | inhibition at 1 µM (DU145 cells; Homo sapiens) | also measured
0.0301 ± 0.00202 µM | 0.0173 ± 0.00196 µM | CNCCNCc1cccc(-c2nc(Nc3cccc(OCCCCCCC(=O)NO)c3)c(C)c(-c3cc4ccccc4s3)n2)c1 [CH-5] | 85% | 
0.0374 ± 0.00165 µM | 0.013 ± 0.00125 µM | CNCCNCc1cccc(-c2nc(Cl)c(C)c(Nc3cccc(OCCCCCCC(=O)NO)c3)n2)c1 [CH-6] | 86% | 
0.0585 ± 0.00321 µM | 0.0248 ± 0.00153 µM | CNCCNCc1cccc(-c2nc(Nc3cccc(OCCCCCCC(=O)NO)c3)c(C)c(Oc3ccccc3)n2)c1 [CH-7] | 81% | 

The next lines start with the compound.

Compound | IC50 (CARM1) | IC50 (HDAC2; [2]) | inhibition at 1 µM (DU145 cells; Homo sapiens) | also measured
CNCCNCc1cccc(-c2nc(Nc3cccc(OCCCCCCC(=O)NO)c3)c(C)c(-c3ccnc4[nH]ccc34)n2)c1 [CH-1] | 0.00371 ± 0.00011 µM |  | 97% | IC50 (DU145 cells; Homo sapiens, DU-145, 72 h, read-out: DU145 cell proliferation IC50): 0.09 µM; inhibitory activity on DU145 cells relative to vorinostat (DU145 cells; ratio of IC50 values): five times stronger; IC50 (PC-3 cells): 0.43 µM; IC50 (HDAC2): 0.00407 ± 0.00025 µM; IC50 (22RV1 cells): 0.95 µM; IC50 (RM-1 cells): 0.71 µM; IC50 [1]: < 1 µM; tumour volume / tumour growth versus vehicle (DU145 xenograft tumour): significantly inhibited tumour growth; also recorded: significantly reduced; also recorded: significant antitumour activity; IC50 (LAPC4 cells): 0.68 µM
CNCCNCc1cccc(-c2nc(Nc3cccc(OCCCCCCC(=O)NO)c3)c(C)c(-c3c(C)noc3C)n2)c1 [CH-2] | 0.00538 ± 0.00054 µM | 0.00833 ± 0.00105 µM | 93% | 
CNCCNCc1cccc(-c2nc(Nc3cccc(OCCCCCCC(=O)NO)c3)c(C)c(-c3cccnc3)n2)c1 [CH-3] | 0.0106 ± 0.00093 µM | 0.00583 ± 0.00041 µM | 96% | 
CNCCNCc1cccc(-c2nc(Nc3cccc(OCCCCCCC(=O)NO)c3)c(C)c(-c3cc4cccc(OC)c4[nH]3)n2)c1 [CH-4] | 0.0255 ± 0.00112 µM | 0.00918 ± 0.00017 µM | 92% | 
CNC[C@@H](O)COc1ccc(Cl)c(-c2nc(-c3c(C)noc3C)c(C)c(N3CC4(CCN(C(=O)OC)CC4)C3)n2)c1 [EZM2302, reference compound] |  |  | < 50% | HDAC2 (IC50, nM) (HDAC2; 37 °C, 30 min): no inhibition
O=C(CCCCCCC(=O)Nc1ccccc1)NO [vorinostat, reference compound] |  |  |  | CARM1 (IC50, nM) (CARM1): no inhibitory effect; also recorded: no inhibition
